Laboratory results taken from paper PMC11126048, “Peptide Toxins from Antarctica: The Nemertean Predator and Scavenger Parborlasia corrugatus (McIntosh, 1876)” (Toxins, 2024).
Where two headings read alike, the source gives them in different places.

Assays:
[1] = Bacterial membrane permeabilization assay (carboxyfluorescein leakage from liposomes); assay type: biochemical, Escherichia coli; conditions: E. coli polar lipid extract liposomes, 10 µM lipid, Tris 10 mM pH 7.4, 45 min, carboxyfluorescein fluorescence; EC50 fixed at 50% of maximum leakage (Triton X-100); mean of four experiments; read-out: EC50 liposome leakage
Experimental: Liposomes were manufactured and permeabilization-assayed as described previously. Briefly, lipid films of Escherichia coli polar lipid extract were deposited on round-bottom flask walls. The lipid films were re-suspended at 55 °C in an aqueous solution of 100 mM of 5(6)-carboxyfluorescein in Tris buffer. The suspensions were subjected to repeated extrusion through a 100 nm polycarbonate membrane in order to reduce multilamellar structures and polydispersity. Un-trapped carboxyfluorescein was removed by gel filtration. Membrane permeability was measured by monitoring carboxyfluorescein efflux from the liposomes to the external low-concentration environment, resulting in a loss of self-quenching and an increased fluorescence signal. The 96-well plates were prepared with a 2-fold serial dilution of the peptides in Tris buffer (10 mM, pH 7.4), and controls without peptides (background) and 0.16% Triton X-100 (maximum leakage). The plates were administered a liposome solution to a final lipid concentration of 10 μM in 200 µL. The effects of each peptide concentration on the liposomes were monitored for 45 min, at which point the initial leakage had largely subsided. The results shown represent the mean from four experiments (one for 3624 Da) with standard deviations and are expressed as the percent of total leakage generated with Triton X-100 and subtraction of the baseline value. […]

[2] = previous experiments; read-out: EC50 liposome leakage, previous experiments; cited from earlier work
Experimental: The ability of the Parborlasia peptides to permeabilize reconstituted E. coli phospholipid membranes was tested in a liposome-based assay. The peptides display the typical steep logarithmic AMP leakage kinetic (Figure 8). […] The 3624 Da peptide was tested in a single experiment series in this assay. The 26-residue long bee venom peptide melittin was used as a reference ...

Melittin
EC50 [1]: 300 nM | EC50 [2]: 400 nM
